Experimental data published in patent US10793557B2, “Sting agonist compounds” (Merck Sharp & Dohme Corp., priority 2018, dated 2020).

Key:
full-length HAQ STING = molecular target: T1, full-length HAQ STING (Homo sapiens, UniProt Q86WV6, G230A/H232R/R293Q/R71H); experiment: 3H-cGAMP filtration binding assay (HAQ STING); settings: for EC50: competition with tritiated cGAMP, HAQ STING membrane
T1 construct: AviTag (after GG linker) (C); HRV3C cleavage site (after GS linker) (C); HIS8 (C); made in house; host or cells: Trichoplusia ni (Hi-Five) insect cells infected with baculovirus (virus generated and amplified in Sf21 cells); used as a washed membrane preparation
How it was run: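 Hi-Five (T. ni) membranes overexpressing the STING variant (2.2 ug/ml working) preincubated with compound 60 min at RT in PBS, then [3H]cGAMP (8 nM working stock) added for 60 min at RT. Bound radioactivity captured on GF/B filters and counted by scintillation; EC50 from 4-parameter fit of control-normalized activity.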

[1] = test system: secretion of interferon-beta from THP1 cells; experiment: IFN-β secretion in THP1 cell culture (5 h); format: cell-based; settings: Homo sapiens, THP-1, 5 h, compound at 30 μM, 30 uM cGAMP = 100%, read-out: % Effect at 30 μM relative to 2′3′-cGAMP
How it was run: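 IFN-β in supernatant measured by AlphaLISA after a 5 h, 37 °C incubation of THP1 cells with compound (10 concentrations, 30000 down to 1.5 nM, 0.3% DMSO) in low-serum RPMI. Values scaled between DMSO and 30 uM cGAMP controls; 4-parameter curve fit yields EC50.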

full-length WT STING = molecular target: T2, full-length WT STING (Homo sapiens, UniProt Q86WV6, H232R); experiment: 3H-cGAMP filtration binding assay (WT STING); settings: for EC50: competition with tritiated cGAMP, WT STING membrane; for inhibition at 20 µM: at 20,000 nM compound
T2 construct: AviTag (after gg linker) (C); HRV3C cleavage site (after gs linker) (C); HIS8 (C); made in house; host or cells: Trichoplusia ni (Hi-Five) insect cells infected with baculovirus (virus generated and amplified in Sf21 cells); used as a washed membrane preparation
How it was run: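 EC50 values come from 4-parameter fits of remaining filter-bound tritium versus log concentration (10-point, 1:3 dilution). Insect-cell membranes carrying full-length WT STING were incubated 60 min at RT with compound and tritiated cGAMP (16 nM working stock) before filtration.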

T1 sequence (Q86WV6 with tags, fused parts or gaps R71H/G230A/H232R/R293Q): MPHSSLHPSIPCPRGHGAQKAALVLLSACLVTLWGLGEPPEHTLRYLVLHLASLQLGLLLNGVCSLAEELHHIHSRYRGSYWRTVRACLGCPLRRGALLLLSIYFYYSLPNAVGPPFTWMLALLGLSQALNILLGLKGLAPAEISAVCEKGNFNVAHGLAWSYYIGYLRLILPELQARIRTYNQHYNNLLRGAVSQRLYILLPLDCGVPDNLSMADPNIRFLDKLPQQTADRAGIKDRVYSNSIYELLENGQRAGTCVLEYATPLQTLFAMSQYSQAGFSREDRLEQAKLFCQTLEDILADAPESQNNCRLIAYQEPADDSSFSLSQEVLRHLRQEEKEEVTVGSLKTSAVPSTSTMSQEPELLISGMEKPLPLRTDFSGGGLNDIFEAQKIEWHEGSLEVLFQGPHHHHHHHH
T2 sequence (Q86WV6 with tags, fused parts or gaps H232R): as the sequence (Q86WV6 with tags, fused parts or gaps R71H/G230A/H232R/R293Q) above, with H71R, A230G, Q293R counted along it

Row | EC50 (full-length HAQ STING) | EC50 (full-length WT STING) | inhibition at 20 µM (full-length WT STING) | inhibition at 20 µM (full-length HAQ STING; at 20,000 nM compound) | Structure (SMILES) | activation at 30 µM [1]
1 | 6 nM | 12 nM |  |  | COc1cc2sc(C(=O)C[C@H](C)C(=O)O)cc2cc1CCOc1cc2cc(C(=O)C[C@H](C)C(=O)O)sc2cc1OC [Example 42, (S)-4-(5-(2-(2-((S)-3-carboxybutanoyl)-6-methoxybenzo[b]thiophen-5-yl)ethoxy)-6-methoxybenzo[b]thiophen-2-yl)-2-methyl-4-oxobutanoic acid] | 67%
2 | 49 nM | 151 nM |  |  | COc1cc2sc(C(=O)C[C@H](C)C(=O)O)cc2cc1OCCCOc1ccc2cc(C(=O)CCC(=O)O)sc2c1 [Example 43, (S)-4-(5-(3-((2-(3-carboxypropanoyl)benzo[b]thiophen-6-yl)oxy)propoxy)-6-methoxybenzo [b]thiophen-2-yl)-2-methyl-4-oxobutanoic acid] | 69%
3 | 14 nM | 64 nM |  |  | COc1cc2sc(C(=O)CCC(=O)O)cc2cc1CCCOc1cc2cc(C(=O)CCC(=O)O)sc2cc1OC [Example 44, 4-(5-(3-((2-(3-carboxypropanoyl)-6-methoxybenzo[b]thiophen-5-yl)oxy)propyl)-6-methoxybenzo[b]thiophen-2-yl)-4-oxobutanoic acid] | 108%
4 | 4330 nM | 14800 nM |  |  | COc1cc2cc(C(=O)C[C@H](C)C(=O)O)sc2cc1OCCCOc1ccc2cc(C(=O)CCC(=O)O)sc2c1 [Example 45, (S)-4-(6-(3-((2-(3-carboxypropanoyl)benzo[b]thiophen-6-yl)oxy)propoxy)-5-methoxybenzo[b]thiophen-2-yl)-2-methyl-4-oxobutanoic acid] | 8%
5 | 133 nM | 394 nM |  |  | COc1cc2cc(C(=O)C[C@H](C)C(=O)O)sc2cc1OCCCOc1ccc2sc(C(=O)CCC(=O)O)cc2c1 [Example 46, (S)-4-(6-(3-((2-(3-carboxypropanoyl)benzo[b]thiophen-5-yl)oxy)propoxy)-5-methoxybenzo[b]thiophen-2-yl)-2-methyl-4-oxobutanoic acid] | 60%
6 | 14 nM | 81 nM |  |  | COc1cc2cc(C(=O)C[C@H](C)C(=O)O)sc2cc1OCCCOc1cc2sc(C(=O)C[C@H](C)C(=O)O)cc2cc1OC [Example 47, (2S,2′S)-4,4′-((propane-1,3-diylbis(oxy))bis(5-methoxybenzo[b]thiophene-6,2-diyl))bis(2-methyl-4-oxobutanoic acid)] | 62%
7 | 12800 nM |  | 43% |  | COC(=O)[C@@H](C)CC(=O)c1cc2cc(OCCCOc3cc4sc(C(=O)C[C@H](C)C(=O)OC)cc4cc3OC)c(OC)cc2s1 [Example 48, methyl (S)-4-(6-methoxy-5-(3-((5-methoxy-2-((S)-4-methoxy-3-methyl-4-oxobutanoyl)benzo[b]thiophen-6-yl)oxy)propoxy)benzo[b]thiophen-2-yl)-2-methyl-4-oxobutanoate] | 22%
8 |  |  | 34% | 44% | COC(=O)[C@@H](C)CC(=O)c1cc2cc(OCCCOc3cc4cc(C(=O)C[C@H](C)C(=O)OC)sc4cc3OC)c(OC)cc2s1 [Example 49, dimethyl 4,4′-((propane-1,3-diylbis(oxy))bis(6-methoxybenzo[b]thiophene-5,2-diyl))(2S,2′S)-bis(2-methyl-4-oxobutanoate)] | 17%
9 | 1 nM | 1 nM |  |  | COc1cc2sc(C(=O)C[C@H](C)C(=O)O)cc2c(F)c1OCCOc1c(OC)cc2sc(C(=O)C[C@H](C)C(=O)O)cc2c1F [Example 50, (2S,2′S)-4,4′-((ethane-1,2-diylbis(oxy))bis(4-fluoro-6-methoxybenzo[b]thiophene-5,2-diyl))bis(2-methyl-4-oxobutanoic acid)] | 44%
10 | 3 nM | 8 nM |  |  | COc1cc2sc(C(=O)C[C@H](C)C(=O)O)cc2cc1OCCCOc1cc2sc(C(=O)C[C@H](C)C(=O)O)cc2cc1OC [Example 51] | 43%
11 | 2 nM | 4 nM |  |  | COc1cc2sc(C(=O)C[C@H](C)C(=O)O)cc2cc1OCCCOc1cc2cc(C(=O)C[C@H](C)C(=O)O)sc2cc1OC [Example 52, (2S,2′S)-4,4′-((propane-1,3-diylbis(oxy))bis(6-methoxybenzo[b]thiophene-5,2-diyl))bis(2-methyl-4-oxobutanoic acid)] | 53%
12 | 146 nM | 713 nM |  |  | COc1cc2cc(C(=O)C[C@H](C)C(=O)O)sc2cc1OCCOc1ccc2sc(C(=O)CCC(=O)O)cc2c1 [Example 53, (S)-4-(6-(2-((2-(3-carboxypropanoyl)benzo[b]thiophen-5-yl)oxy)ethoxy)-5-methoxybenzo[b]thiophen-2-yl)-2-methyl-4-oxobutanoic acid] | 23%
13 | 804 nM | 3080 nM |  |  | COc1cc2sc(C(=O)C[C@H](C)C(=O)O)cc2cc1OCCOc1ccc2sc(C(=O)CCC(=O)O)cc2c1 [Example 54, (S)-4-(5-(2-((2-(3-carboxypropanoyl)benzo[b]thiophen-5-yl)oxy)ethoxy)-6-methoxybenzo[b]thiophen-2-yl)-2-methyl-4-oxobutanoic acid] | 9%
14 | 14 nM | 48 nM |  |  | COc1cc2sc(C(=O)C[C@H](C)C(=O)O)cc2cc1OCCCOc1ccc2sc(C(=O)CCC(=O)O)cc2c1 [Example 55, (S)-4-(5-(3-((2-(3-carboxypropanoyl)benzo[b]thiophen-5-yl)oxy)propoxy)-6-methoxybenzo[b]thiophen-2-yl)-2-methyl-4-oxobutanoic acid] | 53%
15 | 1070 nM | 3130 nM |  |  | COc1cc2sc(C(=O)C[C@H](C)C(=O)O)cc2cc1OCCOc1ccc2cc(C(=O)CCC(=O)O)sc2c1 [Example 56, (S)-4-(5-(2-((2-(3-carboxypropanoyl)benzo[b]thiophen-6-yl)oxy)ethoxy)-6-methoxybenzo[b]thiophen-2-yl)-2-methyl-4-oxobutanoic acid] | 30%
16 | 1 nM | 1 nM |  |  | COc1cc2sc(C(=O)C[C@H](C)C(=O)O)cc2cc1OCCCOc1nc2cc(C(=O)C[C@H](C)C(=O)O)sc2cc1OC [Example 58, (S)-4-(5-(3-((2-((S)-3-carboxybutanoyl)-6-methoxybenzo[b]thiophen-5-yl)oxy)propoxy)-6-methoxythieno[3,2-b]pyridin-2-yl)-2-methyl-4-oxobutanoic acid] | 46%
17 | 1 nM | 2 nM |  |  | COc1cc2sc(C(=O)C[C@H](C)C(=O)O)cc2nc1OCCCOc1c(OC)cc2sc(C(=O)CC(C)(C)C(=O)O)cc2c1F [Example 59, (S)-4-(5-(3-((2-(3-carboxybutanoyl)-6-methoxythieno[3,2-b]pyridin-5-yl)oxy)propoxy)-4-fluoro-6-methoxybenzo[b]thiophen-2-yl)-2,2-dimethyl-4-oxobutanoic acid] | 18%
18 | 19 nM | 67 nM |  |  | COc1cc2sc(C(=O)C[C@H](C)C(=O)O)cc2cc1CCNc1cc2cc(C(=O)C[C@H](C)C(=O)O)sc2cc1OC [Example 60, (2S)-4-{5-[2-({2-[(3S)-3-carboxybutanoyl]-6-methoxy-1-benzothiophen-5-yl}amino)ethyl]-6-methoxy-1-benzothiophen-2-yl}-2-methyl-4-oxobutanoic acid] | 106%
19 | 33 nM | 327 nM |  |  | COc1cc2sc(C(=O)C[C@H](C)C(=O)O)cc2cc1CCCNc1cc2cc(C(=O)C[C@H](C)C(=O)O)sc2cc1OC [Example 61, (S)-4-(5-(3-((2-((S)-3-carboxybutanoyl)-6-methoxybenzo[b]thiophen-5-yl)amino)propyl)-6-methoxybenzo[b]thiophen-2-yl)-2-methyl-4-oxobutanoic acid] | 62%
20 | 2 nM | 2 nM |  |  | COc1cc2sc(C(=O)CCC(=O)O)cc2c(F)c1OCCCOc1c(OC)cc2sc(C(=O)CCC(=O)O)cc2c1F [Example 62, 4,4′-((propane-1,3-diylbis(oxy))bis(4-fluoro-6-methoxybenzo[b]thiophene-5,2-diyl))bis(4-oxobutanoic acid)] | 106%
21 | 1 nM | 4 nM |  |  | COc1cc2sc(C(=O)CCC(=O)O)cc2c(F)c1OCCOc1c(OC)cc2sc(C(=O)C[C@H](C)C(=O)O)cc2c1F [Example 63, (S)-4-(5-(2-((2-(3-carboxypropanoyl)-4-fluoro-6-methoxybenzo[b]thiophen-5-yl)oxy)ethoxy)-4-fluoro-6-methoxybenzo[b]thiophen-2-yl)-2-methyl-4-oxobutanoic acid] | 62%
